The values below come from US20070010670A1, “Nitrogen-containing fused ring compounds and use thereof” (Japan Tobacco Inc., priority 2004, published 2007).

Structures are written as SMILES.

For experiment [1], the target named is T1, CYP2C9 (Homo sapiens, UniProt P11712).
T1 construct: Human liver microsome (20 mg protein/mL, 5 μL, Xenotech LLC, purchased from Lenexa KS); tissue Xenotech LLC; host or cells: human liver microsome
Nature of the experiment: CYP inhibitory test using human liver microsome. Format: in vitro ADME. The note with it: model substrate diclofenac, 37° C. 10 min, read-out: CYP2C9 inhibition IC50. The method, then: Human liver microsome (20 mg protein/mL, 5 μL, Xenotech LLC, purchased from Lenexa KS) was suspended in 100 mM potassium phosphate buffer (70 μL, pH 7.4), mixed with a solution (0.5 μL) of the Example compound dissolved in DMSO and preincubated at 37° C. for 5 min. NADPH producing system coenzyme solution (β-nicotinamide adenine dinucleotide phosphate: 5.2 mM, D-glucose-6-phosphate: 13.2 mM, magnesium chloride: 13.2 mM, glucose-6-phosphate dehydrogenase: 1.8 U/mL) 25 μL, and a model substrate (CYP3A4: midazolam 1 mM, CYP2D6: bufuralol 1 mM, CYP2C9: diclofenac 2 mM) 0.5 μL dissolved in DMSO were added to start the reaction. After incubation at 37° C. for 10 min., acetonitrile (200 μL) containing an internal standard substance (propranolol 1 μM) was added and the mixture was centrifuged (room temperature, 3000 rpm, 20 min). The amount of the metabolite produced from each model substrate in the supernatant was measured by high performance liquid chromatography/mass spectrometry (LC/MS/MS) and each CYP enzyme activity was determined. The concentration showing 50% inhibition (IC50) was calculated relative to the enzyme activity without addition of Example compound (DMSO 0.5 μL added) as 100%.
A general note: Microsomes from liver hold many membrane-bound enzymes, among them those of drug oxidation.

In experiment [2] the target is T2, URAT1 (Homo sapiens, UniProt Q96S37).
T2 sequence (Q96S37 1-553): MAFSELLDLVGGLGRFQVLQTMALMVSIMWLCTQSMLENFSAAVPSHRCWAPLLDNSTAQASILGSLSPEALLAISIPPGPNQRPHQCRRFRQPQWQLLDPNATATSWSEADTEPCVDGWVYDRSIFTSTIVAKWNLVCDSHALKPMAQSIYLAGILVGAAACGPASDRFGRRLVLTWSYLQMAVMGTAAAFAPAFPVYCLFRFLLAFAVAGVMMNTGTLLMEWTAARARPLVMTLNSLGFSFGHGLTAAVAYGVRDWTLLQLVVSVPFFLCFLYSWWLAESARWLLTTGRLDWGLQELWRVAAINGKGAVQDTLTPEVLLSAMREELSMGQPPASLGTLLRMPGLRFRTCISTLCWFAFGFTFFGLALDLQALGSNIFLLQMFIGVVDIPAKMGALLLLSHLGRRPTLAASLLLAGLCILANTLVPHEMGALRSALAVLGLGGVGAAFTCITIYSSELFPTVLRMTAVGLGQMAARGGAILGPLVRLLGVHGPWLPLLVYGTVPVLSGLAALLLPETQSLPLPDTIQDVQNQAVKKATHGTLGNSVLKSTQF
Nature of the experiment: Uric acid transport inhibitory test using human URAT1-expressing cells. It is filed as cell-based. As to conditions: human URAT1 expressing HEK293 cells, 14C-labeled uric acid uptake 5 min, room temperature; read-out: hURAT1 (IC50, concentration necessary for inhibiting the uric acid transport rate by 50%). Details: Human URAT1 full length cDNA was subcloned to expression vector pcDNA3.1; expressed in transfected cells; host or cells: HEK293 cells (pcDNA3.1, geneticin-selected). From the text:
Human URAT1 full length cDNA was subcloned to expression vector pcDNA3.1 and human URAT1 gene was transfected into human embryonic kidney derived cell line (HEK293 cells) by liposome method using Lipofectamine2000. Simultaneously, HEK293 cells transfected with expression vector pcDNA3.1 alone (hereinafter mock cells) were also produced. HEK293 cells expressing human URAT1 gene or mock cells were selected with geneticin resistance as an index. The functional expression of human URAT1 gene was confirmed by a method similar to the following method, using transport of uric acid labeled with ^14C into the cells as an index.
Human URAT1 expressing HEK293 cells or mock cells were cultured in Dulbecco's modified Eagle's MEM medium (high glucose) containing 10% fetal bovine serum, 0.5 mg/mL geneticin sulfate, 100 units/mL penicillin and 100 μg/mL streptomycin under the conditions of 37° C. and 5% CO2 in an incubator. The cells were plated in a 96 well plate (poly-D-Lysine coated) at 1×10^5 cells/well and the following uric acid transport inhibitory test was performed 24 hr later. This test was performed at room temperature.
After the medium was removed by aspiration from each well, the cells were washed once with Hank's Balanced Salt Solution (HBSS) and preincubated with HBSS ([…]) for 5 min. HBSS was aspirated and an assay buffer (wherein NaCl in the above-mentioned HBSS had been substituted with Na-gluconate) containing various concentrations of the Example compound and a radioactive ligand (uric acid labeled with 14C; final concentration […]) was added to each well at […] and an uptake reaction was carried out for 5 min. After the reaction, the cells were washed twice with ice-cold HBSS ([…]), and Microscin ti TM 20 (PerkinElmer) was added at […]. The cells were lysed by stirring and the radioactivity of each well was measured in a liquid scintillation counter (TOP COUNT, Packard).
The uric acid transport rate (%) of the Example compound at each concentration was calculated relative to the radioactivity (difference in radioactivity between human URAT1 expressing HEK293 cells and mock cells without addition of Example compound (DMSO addition)) showing URAT1 specific uric acid transport as 100%, and the concentration (IC50) of the Example compound necessary for inhibiting the uric acid transport rate by 50% was determined. In Table-Table , “+++” means IC50 value of less than 100 nM, “++” means IC50 value of 100 nM to less than 1000 nM, and “+” means IC50 value of 1000 nM to less than 3000 nM.

The target in experiment [3] is T2, URAT1. Also noted: host or cells: Xenopus laevis oocyte expression system. The note with it: Xenopus laevis oocyte expression system; cited from earlier work.

T1 sequence (P11712 whole entry): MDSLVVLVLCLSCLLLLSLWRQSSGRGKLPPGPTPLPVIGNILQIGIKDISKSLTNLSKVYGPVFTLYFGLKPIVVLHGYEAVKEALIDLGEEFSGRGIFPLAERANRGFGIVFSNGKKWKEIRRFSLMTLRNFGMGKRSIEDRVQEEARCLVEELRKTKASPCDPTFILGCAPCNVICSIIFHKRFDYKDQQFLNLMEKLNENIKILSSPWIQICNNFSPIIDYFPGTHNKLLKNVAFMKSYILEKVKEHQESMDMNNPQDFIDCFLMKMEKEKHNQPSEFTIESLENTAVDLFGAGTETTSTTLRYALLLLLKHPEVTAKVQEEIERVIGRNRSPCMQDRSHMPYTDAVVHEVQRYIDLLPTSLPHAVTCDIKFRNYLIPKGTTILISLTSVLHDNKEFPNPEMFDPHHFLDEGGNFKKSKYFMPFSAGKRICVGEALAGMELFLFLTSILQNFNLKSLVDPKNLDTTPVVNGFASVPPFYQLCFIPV

For `CC1Cc2ccccc2N1C(=O)c1cc(Cl)c(O)c(Cl)c1` (centres unmarked) [Example 76, (3,5-dichloro-4-hydroxyphenyl)-(2-methyl-2,3-dihydroindol-1-yl)-methanone], the IC50 is 28 µM in experiment [1] and 0.1 to 1 µM in experiment [2].
On to `CCCN(CCC)S(=O)(=O)c1ccc(C(=O)O)cc1` [probenecid], for which, in experiment [3], the “uric acid uptake via URAT1” value is on record as “inhibited”.
With `CS(=O)(=O)Nc1c(Cl)cc(C(=O)N2CCOc3ccccc32)cc1Cl` [Example 94, N-[2,6-dichloro-4-(2,3-dihydrobenzo[1,4]oxazine-4-carbonyl)phenyl]methanesulfonamide], the figures for the IC50 in experiment [1] and in experiment [2] were 6 µM and 0.1 to 1 µM, respectively.
As to `CC1COc2ccccc2N1C(=O)c1cc(Cl)c(O)c(Cl)c1` (centres unmarked) [Example 93, (3,5-dichloro-4-hydroxyphenyl)-(3-methyl-2,3-dihydrobenzo[1,4]oxazin-4-yl)-methanone], the IC50 in experiment [1] was over 50 µM; in experiment [2] it was 0.1 to 1 µM.
On to `O=C(c1cc(Cl)c(O)c(Cl)c1)N1CCOc2ccc(C(F)(F)F)cc21` [Example 85, (3,5-dichloro-4-hydroxyphenyl)-(6-trifluoromethyl-2,3-dihydrobenzo[1,4]oxazin-4-yl)-methanone], for which the IC50 in experiment [1] stood at 19 µM.
For `CCS(=O)(=O)c1ccc2c(c1)N(C(=O)c1cc(Cl)c(O)c(Cl)c1)CCO2` [Example 84, (3,5-dichloro-4-hydroxyphenyl)-(6-ethanesulfonyl-2,3-dihydrobenzo[1,4]oxazin-4-yl)-methanone], in experiment [1], the IC50 was found to be 15 µM.
For the compound `O=C(c1cc(Cl)c(O)c(Cl)c1)N1CCOc2ccc(F)cc21` [Example 44, (3,5-dichloro-4-hydroxyphenyl)-(6-fluoro-2,3-dihydrobenzo[1,4]oxazin-4-yl)-methanone], the IC50 in experiment [1] is 31 µM.
On the same count and under the same terms, as for `O=C(c1cc(Br)c(O)c(Br)c1)N1CCOc2ccc(Cl)cc21` [Example 82, (6-chloro-2,3-dihydrobenzo[1,4]oxazin-4-yl)-(3,5-dibromo-4-hydroxyphenyl)-methanone], the figure is 11 µM; as for `O=C1CCN(C(=O)c2cc(Cl)c(O)c(Cl)c2)c2ccccc2N1` [Example 37, 5-(3,5-dichloro-4-hydroxybenzoyl)-1,3,4,5-tetrahydrobenzo[b][1,4]diazepin-2-one], over 50 µM; as for `O=S(=O)(c1cc(Cl)c(O)c(Cl)c1)N1CCOc2ccccc21` [Example 22, 2,6-dichloro-4-(2,3-dihydrobenzo[1,4]oxazine-4-sulfonyl)phenol], 1 µM.
On the same count and under the same terms, as for `CN(C)S(=O)(=O)c1ccc2c(c1)N(C(=O)c1cc(Cl)c(O)c(Cl)c1)CCO2` [Example 35, 4-(3,5-dichloro-4-hydroxybenzoyl)-3,4-dihydro-2H-benzo[1,4]oxazine-6-sulfonic acid dimethylamide], the figure is 14 µM.
Still for that read-out and setting: next, `O=C(c1cc(Cl)c(O)c(Cl)c1)N1CCS(=O)(=O)c2ccccc21` [Example 10, (3,5-dichloro-4-hydroxyphenyl)-(1,1-dioxo-2,3-dihydro-1H-1λ^6-benzo[1,4]thiazin-4-yl)-methanone]: over 50 µM; `O=C(c1cc(I)c(O)c(I)c1)N1CCOc2ccccc21` [Example 5, (2,3-dihydrobenzo[1,4]oxazin-4-yl)-(4-hydroxy-3,5-diiodophenyl)-methanone]: 2 µM; `O=C(c1ccc([N+](=O)[O-])cc1)N1CCOc2ccccc21` [Example 43, (2,3-dihydrobenzo[1,4]oxazin-4-yl)-(4-nitrophenyl)-methanone]: over 50 µM.
As to `O=C(c1cc([N+](=O)[O-])c(O)c([N+](=O)[O-])c1)N1CCOc2ccccc21` [Example 30, (2,3-dihydrobenzo[1,4]oxazin-4-yl)-(4-hydroxy-3,5-dinitrophenyl)-methanone], in experiment [1], the IC50 is over 50 µM.
In the case of `Oc1c(Cl)cc(C(=S)N2CCOc3ccccc32)cc1Cl` [Example 11, (3,5-dichloro-4-hydroxyphenyl)-(2,3-dihydrobenzo[1,4]oxazin-4-yl)-methanethione], the IC50 in experiment [1] was 12 µM.
In the case of `O=C(c1cc(Cl)c(O)c(Cl)c1)N1CC[S+]([O-])c2ccccc21` (centres unmarked) [Example 9, (3,5-dichloro-4-hydroxyphenyl)-(1-oxo-2,3-dihydro-1H-1λ^4-benzo[1,4]thiazin-4-yl)-methanone], the IC50 in experiment [1] is 39 µM; in experiment [2], 1 to 3 µM.
For `O=C(c1cc(Cl)c(O)c(Cl)c1)N1CCOc2cc(Cl)ccc21` [Example 52, (7-chloro-2,3-dihydrobenzo[1,4]oxazin-4-yl)-(3,5-dichloro-4-hydroxyphenyl)-methanone], the IC50 in experiment [1] was 11 µM.
Take `Nc1c(Cl)cc(C(=O)N2CCOc3ccccc32)cc1Cl` [Example 28, (4-amino-3,5-dichlorophenyl)-(2,3-dihydrobenzo[1,4]oxazin-4-yl)-methanone]: the IC50 in experiment [1] is 24 µM; in experiment [2], 0.1 to 1 µM.
Regarding `O=C(c1ccc(Cl)c(O)c1)N1CCOc2ccccc21` [Example 41, (4-chloro-3-hydroxyphenyl)-(2,3-dihydrobenzo[1,4]oxazin-4-yl)-methanone], the IC50 in experiment [1] was over 50 µM.
Same read-out and setting: as for `O=C(c1cc(Cl)cc(Cl)c1O)N1CCOc2ccccc21` [Example 38, (3,5-dichloro-2-hydroxyphenyl)-(2,3-dihydrobenzo[1,4]oxazin-4-yl)-methanone], the figure is 5 µM.
